This is an account of results in patent publication US11110105B2, “Compounds, composition and uses thereof for treating cancer” (INSTITUT GUSTAVE ROUSSY, priority 2017, dated 2021).

SMILES strings stand for the structures. Some results are limits rather than exact numbers.

One series relates to MCA205 WT tumor. Description: Tumor challenge, MCA205 WT in immunocompetent C57BL/6 mice. The format is in vivo, mouse. Conditions: 18 mg/kg intraperitoneally, days 5, 10 and 15 (FIG. 11D). Here is the method: (A) Experimental settings. Growth of (B) sarcoma MCA205 or (C) melanoma B16F10 cells that both stably express the globin-SL8-intron construct or (D) MCA205 Wild Type (WT) or (E) B16F10 WT cells that were subcutaneously inoculated on the flank of immunocompetent C57BL/6 mice injected intraperitoneally with 12 mg/kg or 18 mg/kg of isoginkgetin at days 5, 10 and 15 after inoculation. Tumor size was assessed every 3 to 4 days until reaching the established ethical endpoints. Each line represents the tumor size in area (mm^2) of 6 mice in each group. Size in area (mm^2) of (F) MCA205 globin-SL8-intron, (G) B16F10 globin-SL8-intron, (H) MCA205 WT or (I) B16F10 WT tumors subcutaneously inoculated on the flank of immunodeficient Nu/Nu Nude mice injected intraperitoneally with 18 mg/kg of isoginkgetin at days 5, 10 and 15 after inoculation. Data are presented at the day before the endpoints are reached.
Data are given as mean ±SEM. *P<0.05, **P<0.01, ***P<0.001 (unpaired student t test). […] Tumor size was assessed every 3 to 4 days until reaching the established ethical endpoints. […]
The SL8 peptide has been widely shown to be highly immunogenic in vivo. […] At days 5, 10 and 15 after tumor inoculation, the mice were injected intraperitoneally with a define dose of isoginkgetin, and the tumor growth was monitored (FIG. 9A). […]

The test system of series [1] is H2-K^b molecules at the cell surface of MCA205 cells. Kind of series: Flow cytometry of H2-K^b expression, MCA205. The format is cell-based, mouse. From the text: Flow cytometry analyses of H2-K^b expression on MCA205 and B16F10 cells treated with (A) isoginkgetin. Flow cytometry analyses of transiently expressed H2-K^b expression on A375, A549 and MRC5 cells treated with (B) isoginkgetin.

Series [2] in a line: MTT assay on A549 cell line. As to conditions: human, A549 lung carcinoma cells, read-out: % cell viability (±SEM). The format is cell-based. The procedure: MCA205 mouse sarcoma cell line is cultured at 37° C. under 5% CO2 in RPMI 1640 medium (Life Technologies) in the presence of 1% glutamine, 1% sodium pyruvate, 1% non-essential amino-acids, 1% penicillin/streptomycin and 10% FBS (Life Technologies) under standard conditions. B16F10 mouse melanoma cell line, MRC5 human fibroblast cell line and A375 human melanoma cell line are cultured at 37° C. under 5% CO2 in DMEM medium (Life Technologies) containing 1% glutamine, 1% penicillin/streptomycin and 10% FCS under standard conditions. A549 human lung carcinoma cell line is cultured at 37° C. under 5% CO2 in DMEM/F12+Glutamax I in the presence of 1% Hepes, 1% sodium pyruvate and 10% FBS under standard conditions. Stable MCA205-Globin-SL8-intron cell line are cultured under the same condition as MCA205 cell line with additional 2 mg/ml G418 (geneticin from Life Technologies) for selection. Stable B16F10-Globin-SL8-intron cell line are cultured under the same condition as B16F10 cell line with additional 2 mg/ml G418 (geneticin from Life Technologies) for selection. The SL8/Kb-specific (B3Z) T-cell reporter hybridoma are cultured at 37° C. under 5% CO2 in RPMI 1640 medium (Life Technologies) in the presence of 1% glutamine, 0.1% β-galactosidase, 1% penicillin/streptomycin and 10% FCS under standard conditions. […]

Series [3] in a line: MTT viability, human cells (text summary of table 1). The format is cell-based. As to conditions: concentrations used (2.5 and 6.25 μM), A375, A549, MRC5, read-out: viability of human cells upon treatment. From the text: Cancer cells display different intracellular mechanisms that can shape the pool and the quantity of peptides presented on MHC class I (MHC-I) molecules at their surface, leading to reduction of their antigenicity and escape of T-cell recognition. Inventors have shown that PTPs are a major source of peptides for the endogenous MHC-I pathway in vitro. In addition, they have provided the first proof of the positive impact of splicing inhibition on PTPs-dependent antigen presentation by treating HEK cells with the splicing inhibitor isoginkgetin. The latter has been reported to inhibit the spliceosome during the early stages of its assembly. In view to improve antigenicity and immune recognition of cancer cell lines, inventors determined whether isoginkgetin was able to modulate positively the expression and the presentation of tumor associated PTPs-derived antigens (TA-PTPs) at cancer cells surface. For that purpose, the human melanoma cell line A375, the human lung cancer cell line A549 and the normal human fibroblast lung cell line MRC5 were transiently expressing the MHC-I H2-K^b molecule and the PTPs-SL8 epitope from an intron within the β-Globin gene construct (Globin-SL8-intron) and treated with different concentrations of isoginkgetin for 18 h. […]

Turning to `COc1ccc(-c2cc(=O)c3c(OC)cc(OP(=O)([O-])[O-])c(-c4cc(-c5cc(=O)c6c(OC)cc(OP(=O)([O-])[O-])cc6o5)ccc4OC)c3o2)cc1.[Na+].[Na+].[Na+].[Na+]` [IM2P2], in the series on MCA205 WT tumor, the tumor growth result is “did not impact tumor growth”. Besides, in series [1], the “expression of the H2-K^b molecules at the cell surface” value was “is not affected”.
With `COc1ccc(-c2cc(=O)c3c(O)cc(O)c(-c4cc(-c5cc(=O)c6c(O)cc(O)cc6o5)ccc4OC)c3o2)cc1` [Isoginkgetin, isoginkgetin], the viability at 2.5 µM in series [2] (A549, 2.5 μM) was determined as 100%. For the same compound, the viability at 6.25 µM in series [2] (A549, 6.25 μM) is 84%. Also, the viability in series [3] is more than 80%.
